Results reported in US20220408724A1, “METHOD FOR CONTROLLING METABOLISM OF BRANCHED FATTY ACID” (KAO CORPORATION, priority 2019, published 2022).
Values joined by “and” are separate entries in the source; they are usually repeats but may differ in a detail not shown here. Identical values can stand only once.

Assays:
Assay type in all cases: cell-based
[1] = tested on: Escherichia coli (NBRC3972); test: Measurement of viable bacterial count on fabric
Method: After culture on fabric prepared in the same manner as in the above (1), 9 mL of an LP diluent (manufactured by NIHON PHARMACEUTICAL CO., LTD.) was added, and the extraction of the bacteria was carried out under ultrasound for 10 minutes. The extraction liquid was poured and mixed to an SCD-LP agar medium (NIHON PHARMACEUTICAL CO., LTD.), and culture was thereafter carried out at 37° C.; for a day. The number of colonies obtained on each piece of the fabric was counted, and a common logarithm value thereof was measured as the viable bacterial count. […] In addition, the […], the more the viable bacterial count of the microorganism is maintained.
The metabolism of 14-methylhexadecanoic acid by bacteria of the genus Escherichia (Escherichia coli) was tested in the same manner as in example 1.
In this example, Escherichia coli (NBRC3972) was used as a microorganism.
Further, in this example, a bacterial suspension of 10^6 (CFU/ml) prepared by using an NB liquid medium diluted to 1/10 with ion exchange water was used as a bacterial suspension.
(§1) Note that, in this example, C12OH (1-dodecanol) was used as the metabolism controlling agent.

Moraxella osloensis [2] = test: Examination example: suppression of metabolite 4-methyl-3-hexenoic acid, components (a) and (b)/(b′); conditions: single agent 100 μg/fabric g
Method: (§2) After culture on fabric prepared in the same manner as in the above (1), 3 ml of methanol was added, and extraction was carried out under ultrasonic irradiation for 30 minutes (20° C.). The extraction liquid was mixed with (a 1000 ppm methanol solution of) an ADAM reagent of Funakoshi Co., Ltd. at 1:1 (volume ratio) and left overnight under room temperature and dark place conditions. After that, 4-methyl-3-hexenoic acid as a metabolite from 14-methylhexadecanoic acid was quantified by HPLC. The quantification conditions are as follows.
Eluent: acetonitrile 61% (v/v), water 39% (v/v) Column temperature: 40° C. Sample injection volume: 10 μL Flow rate: 1.0 mL/min
The production amount of 4-methyl-3-hexenoic acid after culture on the fabric to which the metabolism controlling agent was added was quantified, and the ratio of the production amount to that of 4-methyl-3-hexenoic acid in the case of adding no metabolism controlling agent (control) was calculated as a metabolite suppression rate (%). The higher a numerical value thereof is, the more the metabolism is suppressed. Note that the metabolite suppression rate was determined by the following formula. In references 1-1, 2-1, 3-1 and 4-1, which are controls, the metabolite suppression rate is 0%.
Metabolite suppression rate(%)=100×[(D−C)/D] • C: production amount of metabolite of reference or examination example (μg/fabric g) • D: production amount of metabolite of control (μg/fabric g)

Staphylococcus aureus = test: Suppression of metabolite 4-methylhexanoic acid from 14-methylhexadecanoic acid
Method: as §2
The production amount of 4-methyl-3-hexenoic acid after culture on the fabric to which each metabolism controlling agent was added was quantified, and the ratio of the production amount to that of 4-methyl-3-hexenoic acid in the case of adding no metabolism controlling agent (control) was calculated as a metabolite suppression rate (%). The higher a numerical value thereof is, the more the metabolism is suppressed. Note that the metabolite suppression rate was determined by the following formula:
Metabolite suppression rate(%)=100×[(D−C)/D] • C: production amount of metabolite of example or comparative example (μg/fabric g) • D: production amount of metabolite of control (μg/fabric g)
The metabolism of 14-methylhexadecanoic acid by bacteria of the genus Staphylococcus (Staphylococcus aureus) was tested in the same manner as in example 1.
In this example, Staphylococcus aureus (strain isolated from clothing) was used as a microorganism.
Further, in this example, a bacterial suspension of 10^7 (CFU/ml) prepared by using an NB liquid medium diluted to 1/10 with ion exchange water was used as a bacterial suspension.
Further, in this example, 4-methylhexanoic acid was quantified as a metabolite from 14-methylhexadecanoic acid, and the metabolite suppression rate was determined in the same manner as in example 1.
as §1

Moraxella osloensis [3] = test: Examination example: suppression of metabolism of 14-methylhexadecanoic acid, components (a) and (b)/(b′); conditions: single agent 100 μg/fabric g
Method: The suppression of metabolism of 14-methylhexadecanoic acid by bacteria of the genus Moraxella and the suppression of a metabolite therefrom were tested in the following manner.
Moraxella osloensis (strain isolated from clothing) was precultured on an SCD-LP agar medium (NIHON PHARMACEUTICAL CO., LTD.) at 37° C.; for 24 hours, and a bacterial suspension of 10^6 (CFU/ml) was prepared by using an NB liquid medium (Difco) diluted to 1/20 with ion exchange water.
A methanol solution in which 14-methylhexadecanoic acid (SIGMA-ALDRICH) was dissolved was added dropwise to 3 cm×3 cm pieces of sterilized plain-weave cotton fabric to make it adhered to the fabric. The adhesion amount of 14-methylhexadecanoic acid was set to 10 μg per piece of the plain-weave cotton fabric (100 μg/fabric g). Further, a methanol solution in which component (a) was dissolved, and then, a methanol solution in which component (b) or (b′) was dissolved were added dropwise to the fabric to which 14-methylhexadecanoic acid adhered, and it was thereafter dried for an hour. This fabric was placed in a sterilized screw tube bottle No. 3 (Maruemu Corporation) and 100 μl of the bacterial suspension was inoculated thereto, and culture was carried out under 37° C.; conditions for 21 hours.
3 ml of methanol was added to the screw tube bottle after culture, and extraction was carried out under ultrasonic irradiation for 30 minutes (20° C.). The extraction liquid was mixed with a (trimethylsilyl)diazomethane hexane solution (FUJIFILM Wako Pure Chemical Corporation) at 9:1 (volume ratio) and left overnight under room temperature and dark place conditions. After that, 14-methylhexadecanoic acid remaining on the fabric was quantified by GC. The quantification conditions for GC are as follows. • GC: Agilent 6890N • GC column: Agilent DB-1 30 m×250 μm×0.25 μm • Temperature rise condition: 50° C. (held for 3 minutes)-(10° C./min)-300° C. (held for 5 minutes) • Sample injection volume: 1 μl • Split ratio: 1:12 • Detector: FID
The residual amount of 14-methylhexadecanoic acid after culture on the fabric to which each metabolism controlling agent was added was quantified, and the ratio of the residual amount to that of 14-methylhexadecanoic acid in the case of adding no metabolism controlling agent (control) was calculated as a metabolism suppression rate (%). The higher a numerical value thereof is, the more the metabolism is suppressed. Note that the metabolism suppression rate was determined by the following formula:
Metabolism suppression rate(%)=[1−(100−A)/(100−B)]×100 • A: residual amount of 14-methylhexadecanoic acid of reference or examination example (μg/fabric g) • B: residual amount of 14-methylhexadecanoic acid of control (μg/fabric g)
A control is an example in which none of component (a), (b) or (b′) is added, and references 1-1, 2-1, 3-1 and 4-1 qualify as this (the same applies hereinafter). In these controls, the metabolism suppression rate is 0′.

CCCCCCCCCCCCO [Example C12OH, 1-dodecanol]
Bacterial count (Log (cfu/fabric cm^2)) ([1]; agent 500 μg/fabric g): 6.3 Log (cfu/fabric cm^2) | Bacterial count (Log (cfu/fabric cm^2)) ([1]; agent 1000 μg/fabric g): 6.3 Log (cfu/fabric cm^2) and 6.4 Log (cfu/fabric cm^2) | Bacterial count (Log (cfu/fabric cm^2)) ([1]; agent 2000 μg/fabric g): 6.3 Log (cfu/fabric cm^2) | Bacterial count (Log (cfu/fabric cm^2)) ([1]; agent 3000 μg/fabric g): 6.3 Log (cfu/fabric cm^2) | Product of metabolism of branched fatty acid: Metabolite suppression rate (%) (Moraxella osloensis [2]): 20% | Product of metabolism of branched fatty acid: Production amount (μg/fabric g) (Moraxella osloensis [2]): 3.5 μg/fabric g | Metabolite suppression rate (%) (Staphylococcus aureus; agent 100 μg/fabric g): 10.00% | Metabolite suppression rate (%) (Staphylococcus aureus; agent 250 μg/fabric g): 74% and 64.10% | Metabolite suppression rate (%) (Staphylococcus aureus; agent 500 μg/fabric g): 93.20% | Metabolism of branched fatty acid: Residual amount (μg/fabric g) (Moraxella osloensis [3]; 14-methylhexadecanoic acid): 59 μg/fabric g | Metabolism of branched fatty acid: Metabolism suppression rate (%) (Moraxella osloensis [3]): 33%
